Source: patent US20230295212A1 (ROME Therapeutics, Inc., priority 2022, published 2023)

Legend:
[1] = target: T1, LINE1 reverse transcriptase (Homo sapiens, UniProt O00370); assay: Stable artificial-intron Cis LINE1 reporter assay (HeLa Tet-On 3G, Firefly luciferase); format: cell-based; conditions: HeLa L1 artificial-intron reporter cells, doxycycline 500 ng/mL, 72 h, class symbols
T1 construct: expressed in transfected cells; host or cells: HeLa Tet-On 3G (Takara, cat no 631183)
Summary of the method: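 HeLa Tet-On 3G clone stably carrying a bi-directional doxycycline-inducible artificial-intron LINE1 reporter, plated at 8,000 cells/well onto serially diluted compound. Expression induced with 500 ng/mL doxycycline (final); Firefly luciferase luminescence (Dual-Glo) read 72 h after plating as LINE1 activity.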

[2] = tested on: THP1-Dual KO-TREX1 xenograft tumors; assay: Altering IFN production in THP1 TREX1 KO xenografts (compounds 2, 25, 40); format: in vivo, mouse; conditions: CB-17 SCID mice, decitabine 5 mg/kg IP, test compound 10, 30 or 100 mg/kg PO once daily 4 days, tumors 24 h post-last dose
Description: Exemplary compounds 2, 25 and 40 were tested for their ability to alter IFN levels in THP1-Dual™ KO-TREX1 xenografts in mice. Assay procedures are described below.
CB-17 SCID female mice were inoculated subcutaneously with 10 million THP1-Dual™ KO-TREX1 cells in 200 μl PBS with Matrigel (1:1) and grouped when tumor volume reached 350-400 mm^3. Mice bearing THP1-Dual™ KO-TREX1 xenograft tumors were then separated into 5 groups. Three groups were administered: (1) decitabine (DAC) at 5 mg/kg IP, once daily, for 4 days, and (2) test compound at 10, 30, or 100 mg/kg, PO, once daily, for 4 days. One group was administered decitabine (DAC) at 5 mg/kg IP, once daily, for 4 days, and the test compound vehicle control. The final group was administered the vehicle control from both the test compound and the vehicle control from decitabine. Decitabine is formulated in sterile PBS, pH 7.4, and Compound 2, 25, and 40 were formulated in 20% PEG400 in PBS.
Tumors were harvested 24 h post-last dose administered on day 4, ground in PBS at 50 Hz for 5 min, and kept on ice for 30 min while being vortexed every 5 min. […] Equal amounts of proteins were added to 96-well black plates, and luciferase signal was measured using the QUANTI-Luc™ detection medium according to manufacturer's instructions. Luminescence was measured using the EnVision® 2105 Multimode Plate Reader. […]

THP1 Dual TREX1 KO cells = assay: THP1 TREX1 KO inhibition assay, combination dosing (stampidine and Compound 2); format: cell-based; conditions: combination of stampidine and Compound 2; k>0 denotes synergy
Description: Exemplary compounds were tested to determine the effect of combined dosing of two compounds on the type 1 interferon response in THP1 Dual TREX1 KO cells treated with 5-aza-2′-deoxycytidine. Assay procedures and results are described below.
THP1 Dual TREX1 KO cells were purchased from InvivoGen. The THP1-Dual™ KO-TREX1 cells were cultured in RPMI 1640, 10% heat-inactivated fetal bovine serum, 25 mM HEPES, 10 μg/mL blasticidin, and 100 μg/mL Zeocin. THP1-Dual™ KO-TREX1 cells were treated with a dose titration of test compound in the presence of 1 μM 5-aza-2′-deoxycytidine (Sigma, cat #189825). Type 1 Interferon and cell viability were assessed after five days of treatment.
Stock solution of test compounds stampidine and Compound 2 were prepared in DMSO followed by a three-fold dilution in DMSO. […]
THP1-Dual™ KO-TREX1 cells were treated with 1 μM 5-aza-2′-deoxycytidine. […] Luminescence was detected on a plate reader according to manufacturer's instructions. […]
The remaining cells were assessed for cell viability by adding 30 μl of CellTiter-Glo (Promega, G9683) solution to each well, and placed on a shaker for 10 minutes at room temperature. Luminescence was detected on a plate reader, according to manufacturer's instructions. […]

T1 sequence (O00370 whole entry, looked up): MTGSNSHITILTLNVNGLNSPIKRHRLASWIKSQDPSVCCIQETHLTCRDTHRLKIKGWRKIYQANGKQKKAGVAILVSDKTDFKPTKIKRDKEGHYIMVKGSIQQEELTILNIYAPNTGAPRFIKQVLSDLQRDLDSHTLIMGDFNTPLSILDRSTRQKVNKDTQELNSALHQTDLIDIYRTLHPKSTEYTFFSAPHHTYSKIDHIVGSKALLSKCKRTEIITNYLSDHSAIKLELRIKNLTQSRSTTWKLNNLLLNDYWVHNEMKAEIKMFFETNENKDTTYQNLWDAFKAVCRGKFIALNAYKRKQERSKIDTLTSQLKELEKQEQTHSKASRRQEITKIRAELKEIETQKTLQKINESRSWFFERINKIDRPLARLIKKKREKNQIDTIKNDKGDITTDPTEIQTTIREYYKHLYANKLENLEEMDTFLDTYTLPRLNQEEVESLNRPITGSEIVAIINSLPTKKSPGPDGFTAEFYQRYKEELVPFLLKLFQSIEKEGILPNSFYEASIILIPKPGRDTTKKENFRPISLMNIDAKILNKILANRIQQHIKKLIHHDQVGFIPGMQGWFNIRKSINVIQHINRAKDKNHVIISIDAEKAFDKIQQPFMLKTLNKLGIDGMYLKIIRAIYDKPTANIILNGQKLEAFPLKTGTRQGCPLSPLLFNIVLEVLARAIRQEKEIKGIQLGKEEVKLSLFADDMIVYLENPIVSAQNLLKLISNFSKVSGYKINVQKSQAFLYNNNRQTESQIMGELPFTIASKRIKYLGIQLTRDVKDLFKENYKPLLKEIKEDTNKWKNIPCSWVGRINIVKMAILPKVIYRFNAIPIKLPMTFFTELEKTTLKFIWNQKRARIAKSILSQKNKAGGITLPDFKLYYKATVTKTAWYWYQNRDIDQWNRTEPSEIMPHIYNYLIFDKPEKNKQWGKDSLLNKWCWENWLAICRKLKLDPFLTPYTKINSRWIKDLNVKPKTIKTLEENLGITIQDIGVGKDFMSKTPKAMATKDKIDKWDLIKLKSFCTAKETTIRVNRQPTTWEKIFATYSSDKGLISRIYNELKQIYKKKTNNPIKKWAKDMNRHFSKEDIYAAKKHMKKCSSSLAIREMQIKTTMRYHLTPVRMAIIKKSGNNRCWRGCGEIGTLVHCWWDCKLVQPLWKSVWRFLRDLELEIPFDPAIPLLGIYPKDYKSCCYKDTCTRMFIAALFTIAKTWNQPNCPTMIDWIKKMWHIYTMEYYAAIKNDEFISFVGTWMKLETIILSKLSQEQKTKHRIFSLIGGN

## Nc1ccn([C@H]2C[C@H](O)[C@](CO)(CCl)O2)c(=O)n1 [Compound 2, 4-amino-1-((2R,4S,5R)-5-(chloromethyl)-4-hydroxy-5-(hydroxymethyl)tetrahydrofuran-2-yl)pyrimidin-2(1H)-one]
[1]
  IC50: ≤ 50 nM
[2]
  inhibition of DAC-induced IFN signal in THP1 tumors: potent inhibition of DAC-induced IFN signal
THP1 Dual TREX1 KO cells
  best BRAID fit k: 2.00 (0.583-3.64)
